The values that follow come from PubChem BioAssay (NCI).

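How tested: cells in 96-well plates exposed to compound for 48 hours at five concentrations. At the GI50, growth is halved. The concentration for full growth arrest is given as TGI.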 A value given as a limit tells only on which side of the number the result lay.

What all share (assay): NCI anticancer screen, dose series, 48 h
The test system of assay [1] is OVCAR-4 ovarian.
Assay [2] relates to SK-MEL-28 melanoma.
Assay [3] deals with SF-268 CNS.
In assay [4] the test system is U251 CNS.
The test system of assay [5] is NCI-H23 lung.
For assay [6], the system named is SR leukemia.
Assay [7] has as its system K-562 leukemia.
Assay [8] deals with RPMI-8226 leukemia.
For assay [9], the system named is SF-295 CNS.
The subject of assay [10] is UACC-62 melanoma.

For `COc1cc([C@@H]2c3cc4c(cc3C(O[C@@H]3O[C@@H]5CO[C@@H](c6cccs6)OC5[C@H](O)[C@H]3O)C3COC(=O)[C@@H]32)OCO4)cc(OC)c1O` (some centres undefined), the GI50 in [1] is 401 nM; in assay [2], 171 nM; in [3], 0.0693 µM; in [4] it was 25.6 nM; in [5] it was 0.0288 µM; in assay [6] it was less than 5 nM. Besides, the GI50 was 111 nM in assay [7], 29.8 nM in assay [8], 22.4 nM in assay [9] and 40.9 nM in assay [10]. In addition, the TGI in assay [1] was 3.95 µM; in [2], 0.953 µM; in assay [3] it was 1.54 µM; in [4], 1.37 µM; in assay [5], 0.482 µM; in assay [6], 0.0249 µM. Besides, the TGI in assay [7] worked out at 19.3 µM; in assay [8], 1.28 µM; in [9], 0.712 µM; in [10] it was 1.1 µM.
`CC(=O)c1ccc(NC(=O)/C(Cc2ccccn2)=N/NC(=O)C[N+](C)(C)C)cc1`: the TGI in assay [1], in assay [2], in assay [3], in assay [4], in assay [5] and in [6] was more than 100 µM each time. For the same compound, the TGI in assay [7], in [8], in [9] and in assay [10] was more than 100 µM each time.
With `NC(N)=NC(N)=Nc1cc2ccccc2c2ccccc12`, the GI50 in [1] is 10100 nM; in [2] it was 13200 nM; in assay [3] it was 9.61 µM; in [4], 4830 nM; in [5], 12.3 µM; in assay [6], 2680 nM. Besides, the GI50 in assay [7] is 4340 nM; in [8], 4490 nM; in assay [9], 13300 nM; in [10], 12100 nM. Further, the TGI in assay [1] came out at 25.9 µM; in [2], 26.2 µM; in assay [3] it was 24.1 µM; in [4], 18.1 µM; in assay [5] it was 29.7 µM; in assay [6], 9.34 µM. The TGI in assay [7] was 21.9 µM; in [8], 26 µM; in assay [9] it was 28.4 µM; in assay [10], 25.8 µM.
Turning to `Cn1cc(C2=C(c3cn(C)c4c(N)cccc34)C(=O)NC2=O)c2ccccc21`, the GI50 in assay [1] is 8300 nM; in [2], 3430 nM; in assay [3], 2.86 µM; in [4], 1190 nM; in assay [5], 4.33 µM; in assay [6], 407 nM. Moreover, the GI50 in assay [7] was 385 nM; in [8], 2440 nM; in assay [9], 898 nM; in [10] it was 2480 nM. In addition, the TGI is more than 23.6 µM in assay [1]; more than 20.6 µM in assay [2]; more than 25 µM in assay [3]; more than 19.2 µM in assay [4]; 21.3 µM in [5]; more than 25 µM in [6]. The TGI in assay [7] was more than 25 µM; in assay [8], 12.5 µM; in assay [9], more than 11.6 µM; in assay [10] it was 18.1 µM.
Regarding `COc1cc(Cc2cc(OC)c(OC)c(OC)c2)ccc1O`, the TGI in [1], in assay [2], in assay [3], in assay [4], in assay [5] and in assay [6] was more than 100 µM each time. Moreover, the TGI in [7] was more than 100 µM; in assay [8], more than 100 µM; in assay [9], 28.6 µM; in assay [10] it was more than 100 µM.
As to `CC(=O)[O][Hg][c]1c(C)c(C)c(C)c(C)c1C`, the GI50 in assay [1] is 2040 nM; in assay [2] it was 1260 nM; in [3], 0.549 µM; in assay [4], 399 nM; in assay [5] it was 0.98 µM; in [6] it was 127 nM. Also, the GI50 in [7] was 468 nM; in assay [8], 1800 nM; in assay [9], 1710 nM; in assay [10], 856 nM. For the same compound, the TGI in assay [1] is 4.47 µM; in [2], 2.63 µM; in assay [3], 2.11 µM; in assay [4], 1.61 µM; in [5], 2.52 µM; in [7] it was 2.63 µM. The TGI in assay [8] is 6.22 µM; in assay [9], 3.76 µM; in [10] it was 2.95 µM.
Take `COc1ccc(S(=O)(=O)N(Cc2ccc3c(n2)C=CC(C)(C)O3)C2CCC2)cc1OC`: the GI50 in [1] is less than 10 nM; in assay [2] it was less than 10 nM; in assay [3], less than 0.01 µM; in [4], less than 10 nM; in [5], 0.0145 µM; in assay [6] it was less than 10 nM. The GI50 in [7] was less than 10 nM; in assay [8], 33.1 nM; in assay [9] it was 13.4 nM; in assay [10], less than 10 nM. Further, the TGI in [1] came out at 0.266 µM; in assay [2], 0.461 µM; in assay [3], 1.13 µM; in assay [4] it was 0.883 µM; in assay [5] it was 1.05 µM; in assay [6] it was 0.0324 µM. The TGI in assay [7] was more than 100 µM; in assay [8], 0.163 µM; in assay [9] it was 0.542 µM; in assay [10] it was 0.05 µM.
As for `COC(=O)C(=O)C(C(=O)C=C(C)C)C(=O)C(=O)Nc1ccc(Cl)cc1C` (centres undefined), the TGI in assay [1] was more than 100 µM; in assay [2], more than 100 µM; in assay [3] it was more than 100 µM; in [4] it was more than 100 µM; in assay [5], more than 100 µM; in assay [6], 45.2 µM. Further, the TGI in assay [7], in assay [8], in assay [9] and in assay [10] was more than 100 µM throughout.
Turning to `CC(C)=CC(=O)N1CCN(C(=O)C=C(C)C)CC1`, the TGI in assay [1], in [2], in assay [3], in assay [4], in assay [5] and in assay [6] was more than 100 µM each time. The TGI in assay [7], in [8], in assay [9] and in assay [10] was more than 100 µM in each case.
Consider `Cn1cc(C2=C(c3cn(CCCN=C(N)N)c4ccccc34)C(=O)NC2=O)c2ccccc21`, for which the GI50 in assay [1] was more than 25000 nM; in assay [2] it was more than 25000 nM; in assay [3], more than 25 µM; in assay [4] it was more than 25000 nM; in [5], more than 25 µM; in assay [6] it was 7220 nM. The GI50 in assay [7], in assay [8], in assay [9] and in [10] was more than 25000 nM throughout. The TGI in assay [1], in [2], in [3], in assay [4], in [5] and in assay [6] was more than 25 µM in each case. For the same compound, the TGI in assay [7], in assay [8], in assay [9] and in assay [10] was more than 25 µM each time.
For `N#CCCN(c1ccc(/C=C2\N=C(c3ccc(Cl)cc3)OC2=O)cc1)S(=O)(=O)c1ccccc1`, the TGI in assay [1], in [2], in [3], in [4], in [5] and in [6] was more than 100 µM in each case. Also, the TGI in assay [7], in assay [8], in assay [9] and in [10] was more than 100 µM throughout.
For `O=C(C[C@@H](C(=O)NCc1cccc(C(F)(F)F)c1)N1C(=O)[C@@H](N2C(=O)OC[C@@H]2c2ccccc2)[C@H]1/C=C/c1ccccc1)NC1CCN(Cc2ccccc2)CC1`, the GI50 is 1770 nM in [1]; 2190 nM in [2]; 3.81 µM in assay [3]; 4580 nM in [4]; 4.19 µM in assay [5]; 1890 nM in assay [6]. Further, the GI50 in assay [7] is 1770 nM; in assay [8], 2220 nM; in assay [9], 15600 nM; in assay [10], 3340 nM. The TGI was 4.43 µM in assay [1]; 5.8 µM in assay [2]; 21.4 µM in assay [3]; 17.2 µM in assay [4]; 17.6 µM in [5]; 5.43 µM in assay [6]. For the same compound, the TGI came to 4.17 µM in [7], 5.31 µM in assay [8], 30.8 µM in [9] and 13.8 µM in [10].
In the case of `CC(C)(C)OC(=O)N(CCCN(CCn1c2c(c3ccccc3c1=O)C(=O)c1ccccc1-2)C(=O)OC(C)(C)C)CCn1c2c(c3ccccc3c1=O)C(=O)c1ccccc1-2`, the GI50 in assay [1] was more than 50000 nM; in assay [2] it was more than 50000 nM; in assay [3], 28.2 µM; in [4], 15200 nM; in assay [5], more than 50 µM; in assay [6], 2070 nM. In addition, the GI50 in [7] is 12400 nM; in assay [8], 7210 nM; in assay [9] it was 15300 nM; in assay [10], more than 50000 nM. For the same compound, the TGI in [1] is more than 50 µM; in assay [2], more than 50 µM; in assay [3] it was more than 50 µM; in assay [4], more than 50 µM; in assay [5], more than 50 µM; in [6], 8.87 µM. For the same compound, the TGI was 46 µM in assay [7], 48.6 µM in [8], more than 50 µM in assay [9] and more than 50 µM in [10].
